{"source": "patent US12208164B2", "about": "“Modular metal-organic polyhedra superassembly compositions” (UNM Rainforest Innovations, priority 2019, dated 2025)", "test_system": "A549 cells", "assay": "Targeted cell killing efficacy, viability of A549 cells", "format": "cell-based, human", "details": "incubated 2 hours, series of concentrations", "procedure": "Cell viability of the constructed nanocarriers was assessed by CellTiter-Glo 2.0 assay. […] Then, 100 μL of the samples was added into a white 96-well plate. Subsequently, 100 μL CellTiter-Glo 2.0 reagent was dispensed into each well. The luminescence was recorded 10 minutes after addition of CellTiter-Glo 2.0 reagent by a BioTek microplate reader. Cell viability was calculated as a percentage of mammalian cells in the absence of nanocarriers.", "data": [{"smiles": "COc1cccc2c1C(=O)c1c(O)c3c(c(O)c1C2=O)C[C@@](O)(C(=O)CO)C[C@@H]3O[C@H]1C[C@H](N)[C@H](O)[C@H](C)O1", "note": "[free DOX, doxorubicin]", "values": [{"measurement": "toxicity to A549 cells", "result": "dose-dependent toxicity"}]}]}
